Experimental data as given in the NIST ThermoML archive (doi:10.1016/j.tca.2014.05.014).

Legend:
[1] = mn = molality of the nth substance listed, in mol/kg; details: 101 kPa, Liquid; for speed of sound: Frequency=3 MHz, Sing-around technique in a fixed-path interferometer; for mass density: Vibrating tube method
[2] = 101 kPa, Liquid, Vibrating tube method

OC[C@H]1O[C@@](CO)(O[C@H]2O[C@H](CO)[C@@H](O)[C@H](O)[C@H]2O)[C@@H](O)[C@@H]1O [D-sucrose] + O
[1]
Details	mass density, 288.15 K [kg/m3]	mass density, 293.15 K [kg/m3]	mass density, 298.15 K [kg/m3]	mass density, 303.15 K [kg/m3]	mass density, 308.15 K [kg/m3]	speed of sound, 288.15 K [m/s]	speed of sound, 293.15 K [m/s]	speed of sound, 298.15 K [m/s]	speed of sound, 303.15 K [m/s]	speed of sound, 308.15 K [m/s]
m1 = 0.05	1006.43	1005.42	1004.16	1002.72	1001.27	1471.5	1487.4	1501.4	1513.5	1523.7
m1 = 0.15	1019	1017.99	1016.73	1015.24	1013.54	1481	1496.3	1509.9	1521.7	1531.8
m1 = 0.25	1030.99	1029.9	1028.58	1026.97	1025.28	1490.7	1505.7	1518.9	1530.3	1539.9
m1 = 0.35	1042.86	1041.71	1040.32	1038.71	1036.92	1500.5	1515	1527.7	1538.7	1548.2

O [water]
[2]
Details	mass density [kg/m3]
288.15 K	999.591
293.15 K	998.551
298.15 K	997.255
303.15 K	995.775
308.15 K	994.329
